Experiments:
[1] = biological target: T1, Muscarinic acetylcholine receptor M1 (Homo sapiens, UniProt P11229); experiment: Binding affinity to muscarinic M1 receptor (unknown origin)
T1 sequence (P11229 whole entry): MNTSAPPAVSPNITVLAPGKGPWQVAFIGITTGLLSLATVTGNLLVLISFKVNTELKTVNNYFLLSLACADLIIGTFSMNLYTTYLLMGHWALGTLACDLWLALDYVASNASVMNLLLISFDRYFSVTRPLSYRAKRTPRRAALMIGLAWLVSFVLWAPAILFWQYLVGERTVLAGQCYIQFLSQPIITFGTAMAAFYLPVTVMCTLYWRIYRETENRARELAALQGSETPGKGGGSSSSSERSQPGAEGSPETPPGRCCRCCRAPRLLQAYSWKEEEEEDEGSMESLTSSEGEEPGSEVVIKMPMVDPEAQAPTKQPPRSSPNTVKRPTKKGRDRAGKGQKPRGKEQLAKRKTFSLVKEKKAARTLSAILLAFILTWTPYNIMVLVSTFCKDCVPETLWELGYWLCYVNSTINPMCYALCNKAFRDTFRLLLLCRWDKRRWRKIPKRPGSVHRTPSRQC

[2] = biological target: 5-hydroxytryptamine receptor 2A (Homo sapiens, UniProt P28223); experiment: Binding affinity to 5HT2A receptor (unknown origin)
Sequence of 5-hydroxytryptamine receptor 2A (P28223 whole entry): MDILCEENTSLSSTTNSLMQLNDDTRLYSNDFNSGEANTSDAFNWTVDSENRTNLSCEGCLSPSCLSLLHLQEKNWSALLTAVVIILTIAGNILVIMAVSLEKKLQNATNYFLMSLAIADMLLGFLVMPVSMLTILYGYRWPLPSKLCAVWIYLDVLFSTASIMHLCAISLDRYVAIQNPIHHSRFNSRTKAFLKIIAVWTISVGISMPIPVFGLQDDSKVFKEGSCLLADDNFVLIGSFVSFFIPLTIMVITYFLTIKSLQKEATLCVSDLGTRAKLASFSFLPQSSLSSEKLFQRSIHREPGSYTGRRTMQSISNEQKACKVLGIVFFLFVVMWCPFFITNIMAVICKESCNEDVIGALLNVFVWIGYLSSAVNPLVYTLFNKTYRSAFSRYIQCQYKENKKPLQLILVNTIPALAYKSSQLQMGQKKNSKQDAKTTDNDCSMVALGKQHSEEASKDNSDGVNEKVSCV

[3] = test system: U-937; experiment: Toxicity in human U937 cells assessed as phospholipidosis first effect concentration by Nile red based fluorescence assay; format: cell-based
[4] = biological target: T2, hERG (KCNH2) (Homo sapiens, UniProt Q12809); experiment: Inhibition of human ERG at 1 uM by patch clamp assay
T2 sequence (Q12809 whole entry): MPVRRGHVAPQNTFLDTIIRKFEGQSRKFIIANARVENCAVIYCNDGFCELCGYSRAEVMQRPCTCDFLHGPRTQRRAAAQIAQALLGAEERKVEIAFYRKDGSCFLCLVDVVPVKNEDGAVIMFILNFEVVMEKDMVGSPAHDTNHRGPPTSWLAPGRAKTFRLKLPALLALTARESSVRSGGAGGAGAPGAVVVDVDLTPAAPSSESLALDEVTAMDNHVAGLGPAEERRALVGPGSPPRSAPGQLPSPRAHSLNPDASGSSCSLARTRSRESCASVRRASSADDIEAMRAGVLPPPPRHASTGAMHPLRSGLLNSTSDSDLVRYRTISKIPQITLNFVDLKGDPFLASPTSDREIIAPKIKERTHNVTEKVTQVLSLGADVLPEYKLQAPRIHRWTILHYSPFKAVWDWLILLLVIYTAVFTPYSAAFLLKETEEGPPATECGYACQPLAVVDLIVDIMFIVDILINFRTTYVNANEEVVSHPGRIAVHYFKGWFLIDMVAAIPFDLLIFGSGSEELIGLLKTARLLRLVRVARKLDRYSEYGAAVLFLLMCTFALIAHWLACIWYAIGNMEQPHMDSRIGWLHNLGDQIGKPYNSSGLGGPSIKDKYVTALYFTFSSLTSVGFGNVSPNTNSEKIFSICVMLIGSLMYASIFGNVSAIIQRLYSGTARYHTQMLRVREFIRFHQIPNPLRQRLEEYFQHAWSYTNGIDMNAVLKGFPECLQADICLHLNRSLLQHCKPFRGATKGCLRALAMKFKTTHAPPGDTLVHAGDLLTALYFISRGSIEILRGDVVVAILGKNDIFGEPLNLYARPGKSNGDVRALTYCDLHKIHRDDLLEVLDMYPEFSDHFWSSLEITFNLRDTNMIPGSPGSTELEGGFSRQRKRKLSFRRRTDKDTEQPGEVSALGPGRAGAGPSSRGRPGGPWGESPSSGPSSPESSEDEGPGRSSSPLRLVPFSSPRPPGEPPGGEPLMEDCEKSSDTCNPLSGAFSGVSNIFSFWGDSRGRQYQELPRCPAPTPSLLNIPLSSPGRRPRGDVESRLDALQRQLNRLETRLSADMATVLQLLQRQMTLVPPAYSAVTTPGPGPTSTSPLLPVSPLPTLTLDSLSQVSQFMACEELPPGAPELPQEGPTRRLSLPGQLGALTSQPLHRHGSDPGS

[5] = biological target: Melanin-concentrating hormone receptor 1 (Homo sapiens, UniProt Q99705); experiment: Displacement of [125I-MCH] from human MCH receptor 1 expressed in CHO cell membranes by scintillation counting method
Sequence of Melanin-concentrating hormone receptor 1 (Q99705 whole entry): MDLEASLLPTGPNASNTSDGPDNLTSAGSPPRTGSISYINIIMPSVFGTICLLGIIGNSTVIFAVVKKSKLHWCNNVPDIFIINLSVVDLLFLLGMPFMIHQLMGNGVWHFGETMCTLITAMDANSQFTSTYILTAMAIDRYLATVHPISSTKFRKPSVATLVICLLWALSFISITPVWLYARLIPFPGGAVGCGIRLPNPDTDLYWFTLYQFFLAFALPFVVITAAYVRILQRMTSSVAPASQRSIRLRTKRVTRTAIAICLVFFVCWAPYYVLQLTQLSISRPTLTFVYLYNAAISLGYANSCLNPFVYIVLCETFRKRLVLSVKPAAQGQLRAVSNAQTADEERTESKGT

[6] = Dissociation constant, pKa of the compound; format: physicochemical
[7] = test system: CHO; experiment: Selectivity index, ratio of IC50 for muscarinic M1 receptor (unknown origin) to IC50 for human MCH receptor 1 expressed in CHO cell membranes; format: cell-based
[8] = test system: CHO; experiment: Selectivity index, ratio of IC50 for 5HT2A receptor (unknown origin) to IC50 for human MCH receptor 1 expressed in CHO cell membranes; format: cell-based
[9] = test system: Rattus norvegicus; experiment: Dose normalized Cmax in Wistar rat at 6.7 umol/kg, po; format: ADME, organism-based; conditions: in vivo
[10] = biological target: T2, hERG (KCNH2); experiment: Inhibition of human ERG at 10 uM by patch clamp assay
[11] = Tmax in Wistar rat at 6.7 umol/kg, po; format: ADME, organism-based; conditions: in vivo
[12] = Mean residence time in Wistar rat at 6.7 umol/kg, po; format: ADME, organism-based; conditions: in vivo
[13] = test system: Rattus norvegicus; experiment: AUC in Wistar rat at 6.7 umol/kg, po; format: ADME, organism-based; conditions: in vivo
[14] = test system: Rattus norvegicus; experiment: AUC in Wistar rat at 10.9 umol/kg, po; format: ADME, organism-based; conditions: in vivo
[15] = Tmax in Wistar rat at 10.9 umol/kg, po; format: ADME, organism-based; conditions: in vivo
[16] = biological target: Voltage-gated inwardly rectifying potassium channel KCNH2 (Homo sapiens, UniProt Q12809); experiment: Inhibition of human ERG by patch clamp assay
Sequence of Voltage-gated inwardly rectifying potassium channel KCNH2 (Q12809 whole entry): as the sequence (Q12809 whole entry) above

[17] = test system: Rattus norvegicus; experiment: Dose normalized Cmax in Wistar rat at 10.9 umol/kg, po; format: ADME, organism-based; conditions: in vivo
[18] = Mean residence time in Wistar rat at 10.9 umol/kg, po; format: ADME, organism-based; conditions: in vivo
[19] = Mean residence time in Wistar rat at 11.9 umol/kg, po; format: ADME, organism-based; conditions: in vivo
[20] = test system: Rattus norvegicus; experiment: AUC in Wistar rat at 11.9 umol/kg, po; format: ADME, organism-based; conditions: in vivo
[21] = test system: Rattus norvegicus; experiment: Dose normalized Cmax in Wistar rat at 11.9 umol/kg, po; format: ADME, organism-based; conditions: in vivo
[22] = Tmax in Wistar rat at 11.9 umol/kg, po; format: ADME, organism-based; conditions: in vivo

| SMILES | IC50 [1] [nM] | IC50 [2] [nM] | Activity [3] [µM] | inhibition at 1 µM [4] [%] | IC50 [5] [nM] | other results |
| --- | --- | --- | --- | --- | --- | --- |
| COc1ccc(-c2ccc(CCCNc3ccc(CN(C)C)cc3)nn2)cc1 | 1030 | 4580 | – | – | – | – |
| OCC1CCN(Cc2ccc(OCCCc3ccc(Oc4ccccc4)nn3)cc2)CC1 | 2110 | > 10000 | 100 | 8 | – | – |
| CN(CCCc1ccc(-c2ccc(Cl)cc2)cc1)c1ccc(CN2CCCCC2)cc1 | 419 | 646 | – | – | – | – |
| COc1ccc(-c2ccc(CCCNc3ccc(CN4CCOCC4)cc3)nn2)cc1 | > 10000 | > 10000 | 12.5 | 5 | 20 | pKa [6]: 7.6 |
| O=C(/C=C/c1ccc(-c2ccc(Cl)cc2)cc1)Nc1ccc(CN2CCCCC2)cc1 | 401 | 1930 | – | – | 16 | Ratio IC50 [7]: 25; Ratio IC50 [8]: 121 |
| CC(=O)NC1CCN(Cc2ccc(OCCCc3ccc(Oc4ccccc4)nn3)cc2)CC1 | > 10000 | 9650 | 100 | – | 10 | Cmax/dose [9]: 531 nM; inhibition at 10 µM [10]: 13%; Tmax [11]: 0.8 h; MRT [12]: 2.9 h; AUC/dose [13]: 175 nM·h |
| CN(C(=O)/C=C/c1ccc(-c2ccc(Cl)cc2)cc1)c1ccc(CN2CCCCC2)cc1 | 625 | 362 | – | – | 634 | Ratio IC50 [7]: 1; Ratio IC50 [8]: 1 |
| O=C(NCc1ccc(-c2ccc(Cl)cc2)cc1)Nc1ccc(CN2CCCCC2)cc1 | 511 | 29 | – | – | – | – |
| CC(=O)NC1CCN(Cc2ccc(NCCCc3ccc(Oc4ccccc4)nn3)cc2)CC1 | > 10000 | > 10000 | > 100 | – | – | AUC/dose [14]: 123 nM·h; Tmax [15]: 2.8 h; IC50 [16]: > 10000 nM; Cmax/dose [17]: 24 nM; MRT [18]: 6.4 h |
| OC1CCN(Cc2ccc(OCCCc3ccc(-c4ccc(F)cc4)nn3)cc2)CC1 | > 10000 | 242 | – | – | 186 | – |
| CC(=O)NC1CCN(Cc2ccc(OCCCc3ccc(Cc4ccccc4)nn3)cc2)CC1 | > 10000 | > 10000 | 100 | 13 | – | – |
| COc1ccc(-c2ccc(CCCNc3ccc(CN4CCC(O)CC4)cc3)nn2)cc1 | > 10000 | 8820 | 50 | 10 | 20 | pKa [6]: 8.6 |
| O=C(CCc1ccc(-c2ccc(Cl)cc2)cc1)Nc1ccc(CN2CCCCC2)cc1 | 89 | 138 | – | – | 38 | Ratio IC50 [7]: 2; Ratio IC50 [8]: 4 |
| N#Cc1ccc(-c2ccc(CCCNc3ccc(CN4CCCCC4)cc3)nn2)cc1 | 1920 | 1460 | – | – | – | – |
| OC1CCN(Cc2ccc(NCCCc3ccc(OCc4ccccc4)nn3)cc2)CC1 | > 10000 | > 10000 | 50 | 4 | 3 | – |
| COc1ccc(-c2ccc(CCCNc3ccc(CN4CCCCC4)cc3)nn2)cc1 | 962 | 1810 | 6.25 | – | 7 | pKa [6]: 9 |
| OC1CCN(Cc2ccc(OCCCc3ccc(-c4ccc(Cl)cc4)nn3)cc2)CC1 | > 10000 | 1410 | 25 | 38 | – | – |
| OCC1CCN(Cc2ccc(OCCCc3ccc(-c4ccc(Cl)cc4)nn3)cc2)CC1 | 1650 | 790 | 12.5 | – | – | – |
| O[C@@H]1CCCN(Cc2ccc(OCCCc3ccc(Oc4ccccc4)nn3)cc2)C1 | > 10000 | > 10000 | – | – | – | – |
| COc1ccc(-c2ccc(CCCNc3ccc(CN4CCC(NC(C)=O)CC4)cc3)nn2)cc1 | > 10000 | > 10000 | 100 | 7 | 10 | MRT [19]: 4 h; pKa [6]: 8.8; AUC/dose [20]: 476 nM·h; Cmax/dose [21]: 83 nM; Tmax [22]: 1.5 h |
| CC(=O)NC1CCN(Cc2ccc(OCCCc3ccc(-c4ccc(F)cc4)nn3)cc2)CC1 | 4470 | 713 | 100 | – | 15 | – |
| OC1CCN(Cc2ccc(NCCCc3ccc(Oc4ccccc4)nn3)cc2)CC1 | > 10000 | > 10000 | 50 | – | 24 | inhibition at 10 µM [10]: 35%; pKa [6]: 9.1 |
| Clc1ccc(-c2ccc(CCCNc3ccc(CN4CCCCC4)cc3)nn2)cc1 | 310 | 138 | 6.25 | 8 | 4 | – |
| Clc1ccc(-c2ccc(CCCNc3ccc(CN4CCCCC4)cc3)cc2)cc1 | 325 | 680 | – | 76 | 3 | Ratio IC50 [7]: 110; Ratio IC50 [8]: 230 |
| O[C@@H]1CCCN(Cc2ccc(OCCCc3ccc(-c4ccc(Cl)cc4)nn3)cc2)C1 | 5470 | 595 | 6.25 | 13 | 15 | – |
| Fc1ccc(-c2ccc(CCCNc3ccc(CN4CCCCC4)cc3)nn2)cc1 | 3740 | 34 | – | – | – | – |
| O=C(C#Cc1ccc(-c2ccc(Cl)cc2)cc1)Nc1ccc(CN2CCCCC2)cc1 | 225 | – | – | – | – | – |
| O=C(COc1ccc(-c2ccc(Cl)cc2)cc1)Nc1ccc(CN2CCCCC2)cc1 | 446 | 91 | – | – | 94 | Ratio IC50 [7]: 5; Ratio IC50 [8]: 1 |
| COc1ccc(-c2ccc(CCCNc3ccc(CN4CCCC(O)C4)cc3)nn2)cc1 (stereo not drawn) | > 10000 | > 10000 | 25 | 10 | – | – |
| COc1ccc(-c2ccc(CCCNc3ccc(CN4CCCC4)cc3)nn2)cc1 | 1860 | 4540 | – | – | 95 | – |

Source: ChEMBL document CHEMBL3600324, “Design, synthesis and evaluation of MCH receptor 1 antagonists--Part II: Optimization of pyridazines toward reduced phospholipidosis and hERG inhibition” (Bioorg Med Chem Lett, 2015)
